Reference: ChEMBL document CHEMBL1126865, “Structure-activity relationship within a series of pyrazolidinone antibacterial agents. 2. Effect of side-chain modification on in vitro activity and pharmacokinetic parameters” (J Med Chem, 1993)
In brackets after ≈: the same amount, converted by molar mass.

Columns and labels:
Assay type in all cases: functional
Klebsiella aerogenes = assay: In vitro antibacterial activity against Enterobacter aerogenes C32
Haemophilus influenzae = assay: In vitro antibacterial activity against Haemophilus influenza C.L
Klebsiella pneumoniae = assay: In vitro antibacterial activity against Klebsiella X26
Escherichia coli = assay: In vitro antibacterial activity against Escherichia coli EC14
Staphylococcus aureus = assay: In vitro antibacterial activity against Staphylococcus aureus X1.1
[1] = tested on: Staphylococcus epidermidis; assay: In vitro antibacterial activity against Staphylococcus epidermidis 222
Streptococcus pneumoniae = assay: In vitro antibacterial activity against Streptococcus pneumoniae PARK
Pseudomonas aeruginosa = assay: In vitro antibacterial activity against Pseudomonas PS72

C#CCO/N=C(/C(=O)N[C@H]1CN2CC(S(C)(=O)=O)=C(C(=O)O)N2C1=O)c1csc(N)n1
MIC (Klebsiella aerogenes): 0.5 µg/mL (≈ 1.07 µM)
MIC (Haemophilus influenzae): 0.25 µg/mL (≈ 0.534 µM)
MIC (Klebsiella pneumoniae): 0.125 µg/mL (≈ 0.267 µM)
MIC (Escherichia coli): 0.25 µg/mL (≈ 0.534 µM)
MIC (Staphylococcus aureus): 32 µg/mL (≈ 68.3 µM)
MIC [1]: 32 µg/mL (≈ 68.3 µM)
MIC (Streptococcus pneumoniae): 0.25 µg/mL (≈ 0.534 µM)
MIC (Pseudomonas aeruginosa): > 128 µg/mL

N#CC1=C(C(=O)O)N2C(=O)[C@@H](NC(=O)CSc3ccccc3)CN2C1
MIC (Klebsiella aerogenes): 128 µg/mL (≈ 357 µM)
MIC (Haemophilus influenzae): 32 µg/mL (≈ 89.3 µM)
MIC (Klebsiella pneumoniae): 16 µg/mL (≈ 44.6 µM)
MIC (Escherichia coli): 32 µg/mL (≈ 89.3 µM)
MIC (Staphylococcus aureus): 4 µg/mL (≈ 11.2 µM)
MIC [1]: 8 µg/mL (≈ 22.3 µM)
MIC (Streptococcus pneumoniae): 0.5 µg/mL (≈ 1.4 µM)
MIC (Pseudomonas aeruginosa): > 128 µg/mL

Nc1nc(/C(=N\OCCCl)C(=O)N[C@H]2CN3CC(S(=O)(=O)c4ccccc4)=C(C(=O)O)N3C2=O)cs1
MIC (Klebsiella aerogenes): 4 µg/mL (≈ 7.21 µM)
MIC (Haemophilus influenzae): 0.25 µg/mL (≈ 0.45 µM)
MIC (Klebsiella pneumoniae): 0.06 µg/mL (≈ 0.108 µM)
MIC (Escherichia coli): 1 µg/mL (≈ 1.8 µM)
MIC (Staphylococcus aureus): 16 µg/mL (≈ 28.8 µM)
MIC [1]: 32 µg/mL (≈ 57.7 µM)
MIC (Streptococcus pneumoniae): 0.06 µg/mL (≈ 0.108 µM)
MIC (Pseudomonas aeruginosa): > 128 µg/mL

N#CC1=C(C(=O)O)N2C(=O)[C@@H](NC(=O)/C(=N/OCCBr)c3csc(N)n3)CN2C1
MIC (Klebsiella aerogenes): 0.5 µg/mL (≈ 1.03 µM)
MIC (Haemophilus influenzae): 0.125 µg/mL (≈ 0.258 µM)
MIC (Klebsiella pneumoniae): 0.06 µg/mL (≈ 0.124 µM)
MIC (Escherichia coli): 0.125 µg/mL (≈ 0.258 µM)
MIC (Staphylococcus aureus): 8 µg/mL (≈ 16.5 µM)
MIC [1]: 4 µg/mL (≈ 8.26 µM)
MIC (Streptococcus pneumoniae): 0.125 µg/mL (≈ 0.258 µM)
MIC (Pseudomonas aeruginosa): > 128 µg/mL

CCS(=O)(=O)C1=C(C(=O)O)N2C(=O)[C@@H](NC(=O)/C(=N/OCSC)c3csc(N)n3)CN2C1
MIC (Klebsiella aerogenes): 0.5 µg/mL (≈ 0.991 µM)
MIC (Haemophilus influenzae): 0.5 µg/mL (≈ 0.991 µM)
MIC (Klebsiella pneumoniae): 0.06 µg/mL (≈ 0.119 µM)
MIC (Escherichia coli): 0.25 µg/mL (≈ 0.495 µM)
MIC (Staphylococcus aureus): 16 µg/mL (≈ 31.7 µM)
MIC [1]: 64 µg/mL (≈ 127 µM)
MIC (Streptococcus pneumoniae): 0.125 µg/mL (≈ 0.248 µM)
MIC (Pseudomonas aeruginosa): > 128 µg/mL

CC(C)=CCO/N=C(/C(=O)N[C@H]1CN2CC(S(C)(=O)=O)=C(C(=O)O)N2C1=O)c1csc(N)n1
MIC (Klebsiella aerogenes): 2 µg/mL (≈ 4.01 µM)
MIC (Haemophilus influenzae): 0.25 µg/mL (≈ 0.501 µM)
MIC (Klebsiella pneumoniae): 0.06 µg/mL (≈ 0.12 µM)
MIC (Escherichia coli): 0.5 µg/mL (≈ 1 µM)
MIC (Staphylococcus aureus): 4 µg/mL (≈ 8.02 µM)
MIC [1]: 8 µg/mL (≈ 16 µM)
MIC (Streptococcus pneumoniae): 0.06 µg/mL (≈ 0.12 µM)
MIC (Pseudomonas aeruginosa): > 128 µg/mL

CCCO/N=C(/C(=O)N[C@H]1CN2CC(S(C)(=O)=O)=C(C(=O)O)N2C1=O)c1csc(N)n1
MIC (Klebsiella aerogenes): 0.25 µg/mL (≈ 0.529 µM)
MIC (Haemophilus influenzae): 0.125 µg/mL (≈ 0.265 µM)
MIC (Klebsiella pneumoniae): 0.015 µg/mL (≈ 0.0317 µM)
MIC (Escherichia coli): 0.125 µg/mL (≈ 0.265 µM)
MIC (Staphylococcus aureus): 8 µg/mL (≈ 16.9 µM)
MIC [1]: 16 µg/mL (≈ 33.9 µM)
MIC (Streptococcus pneumoniae): 0.125 µg/mL (≈ 0.265 µM)
MIC (Pseudomonas aeruginosa): 128 µg/mL (≈ 271 µM)

CC(C)(O/N=C(/C(=O)N[C@H]1CN2CC(C#N)=C(C(=O)O)N2C1=O)c1csc(N)n1)C(=O)O
MIC (Klebsiella aerogenes): 0.125 µg/mL (≈ 0.27 µM)
MIC (Haemophilus influenzae): 0.06 µg/mL (≈ 0.129 µM)
MIC (Klebsiella pneumoniae): 0.25 µg/mL (≈ 0.539 µM)
MIC (Escherichia coli): 0.03 µg/mL (≈ 0.0647 µM)
MIC (Staphylococcus aureus): > 128 µg/mL
MIC [1]: > 128 µg/mL
MIC (Streptococcus pneumoniae): 16 µg/mL (≈ 34.5 µM)
MIC (Pseudomonas aeruginosa): 64 µg/mL (≈ 138 µM)

C=CCO/N=C(/C(=O)N[C@H]1CN2CC(S(=O)(=O)CC=C)=C(C(=O)O)N2C1=O)c1csc(N)n1
MIC (Klebsiella aerogenes): 0.5 µg/mL (≈ 1.01 µM)
MIC (Haemophilus influenzae): 0.25 µg/mL (≈ 0.503 µM)
MIC (Klebsiella pneumoniae): 0.03 µg/mL (≈ 0.0604 µM)
MIC (Escherichia coli): 0.125 µg/mL (≈ 0.252 µM)
MIC (Staphylococcus aureus): 8 µg/mL (≈ 16.1 µM)
MIC [1]: 32 µg/mL (≈ 64.4 µM)
MIC (Streptococcus pneumoniae): 0.125 µg/mL (≈ 0.252 µM)
MIC (Pseudomonas aeruginosa): > 128 µg/mL

CS(=O)(=O)C1=C(C(=O)O)N2C(=O)[C@@H](NC(=O)/C(=N/OCC#N)c3csc(N)n3)CN2C1
MIC (Klebsiella aerogenes): 0.5 µg/mL (≈ 1.07 µM)
MIC (Haemophilus influenzae): 2 µg/mL (≈ 4.26 µM)
MIC (Klebsiella pneumoniae): 0.25 µg/mL (≈ 0.533 µM)
MIC (Escherichia coli): 0.25 µg/mL (≈ 0.533 µM)
MIC (Staphylococcus aureus): 64 µg/mL (≈ 136 µM)
MIC [1]: 128 µg/mL (≈ 273 µM)
MIC (Streptococcus pneumoniae): 0.25 µg/mL (≈ 0.533 µM)
MIC (Pseudomonas aeruginosa): > 128 µg/mL

Nc1nc(/C(=N\OCCCl)C(=O)N[C@H]2CN3CC(S(=O)(=O)Cc4ccccc4)=C(C(=O)O)N3C2=O)cs1
MIC (Klebsiella aerogenes): 4 µg/mL (≈ 7.03 µM)
MIC (Haemophilus influenzae): 0.5 µg/mL (≈ 0.879 µM)
MIC (Klebsiella pneumoniae): 0.03 µg/mL (≈ 0.0527 µM)
MIC (Escherichia coli): 2 µg/mL (≈ 3.51 µM)
MIC (Staphylococcus aureus): 8 µg/mL (≈ 14.1 µM)
MIC [1]: 16 µg/mL (≈ 28.1 µM)
MIC (Streptococcus pneumoniae): 0.06 µg/mL (≈ 0.105 µM)
MIC (Pseudomonas aeruginosa): > 128 µg/mL

CCCCS(=O)(=O)C1=C(C(=O)O)N2C(=O)[C@@H](NC(=O)/C(=N/OCCCl)c3csc(N)n3)CN2C1
MIC (Klebsiella aerogenes): 1 µg/mL (≈ 1.87 µM)
MIC (Haemophilus influenzae): 0.5 µg/mL (≈ 0.935 µM)
MIC (Klebsiella pneumoniae): 0.03 µg/mL (≈ 0.0561 µM)
MIC (Escherichia coli): 0.5 µg/mL (≈ 0.935 µM)
MIC (Staphylococcus aureus): 8 µg/mL (≈ 15 µM)
MIC [1]: 16 µg/mL (≈ 29.9 µM)
MIC (Streptococcus pneumoniae): 0.125 µg/mL (≈ 0.234 µM)
MIC (Pseudomonas aeruginosa): > 128 µg/mL
